From BigSolDB 2.1

Details: 298.15 K

CC(=O)Oc1ccccc1C(=O)O
Details | solubility (mole fraction)
in 1,4-dioxane | 0.126
in 2-ethylhexanol | 0.0303
in 2-methyl-1-butanol | 0.0344
in 2-methyl-1-pentanol | 0.0321
in 2-pentanol | 0.0435
in 3,7-dimethyl-1-octanol | 0.0304
in 4-methyl-2-pentanol | 0.0393
in MTBE | 0.0401
in THF | 0.19
in dibutyl ether | 0.00709
in diethyl ether | 0.0353
in diisopropyl ether | 0.0122
in ethyl acetate | 0.0458
in isobutanol | 0.0319
in isopentanol | 0.0381
in isopropanol | 0.0523
in methyl acetate | 0.0529
in methyl butyrate | 0.0297
in n-butanol | 0.0462
in n-butyl acetate | 0.0335
in n-decanol | 0.0365
in n-heptanol | 0.0389
in n-hexanol | 0.0397
in n-octanol | 0.0358
in n-pentanol | 0.0397
in n-pentyl acetate | 0.0268
in n-propanol | 0.0498
in propylene carbonate | 0.0313
in sec-butanol | 0.0536
in tert-amyl alcohol | 0.0818
in tert-butanol | 0.0684
